The values that follow are results of earlier work, collected in US20070098710A1, “Anxiolytic composition comprising essential oil derived from plants as active ingredients, anxiolytic comprising thereof, and a producing method thereof” (NATURE TECHNOLOGY, INC., priority 2004, published 2007).

Data set [1] has as its system male ICR mice. The conditions noted are these: mouse, administered previously.

`CN1C(=O)CN=C(c2ccccc2)c2cc(Cl)ccc21` [diazepam]: the “change of the emotionality (inhibition of looking into hole) by restraint stress” value in data set [1] is “improved”.

For the compound `CC1CCC(C(C)C)C(O)C1` (stereo not drawn) [l-menthol, 5-methyl 2-(1-methylethyl)cyclohexanol], the solubility in ethanol entry (ethanol) is reported as “soluble in ethanol”. In addition, the solubility in water result (water) is given as “insoluble in water”.
